Data as given in the supplement of paper PMC5908809.

Legend:
YT (IL-2 2.5 ng/mL) [1] = test: percent inhibition of viability; higher = more inhibition; conditions: 72 h
NK-92 (IL-2 2.5 ng/mL) [2] = test: as above; conditions: 72 h
[3] = tested on: normal primary NK cells, pool 1 (3 donors), resting (IL-2 0 ng/mL); test: as above; conditions: 72 h
IMC-1 (IL-2 20 ng/mL) [4] = test: as above; conditions: 72 h
[5] = tested on: normal primary NK cells, pool 1 (3 donors) (IL-2 2.5 ng/mL); test: as above; conditions: 72 h
NK-YS (IL-2 2.5 ng/mL) [6] = test: as above; conditions: 72 h
NKL (IL-2 2.5 ng/mL) [7] = test: as above; conditions: 72 h
[8] = tested on: normal primary NK cells, pool 3 (3 donors) (IL-2 2.5 ng/mL); test: as above; conditions: 72 h
KHYG-1 (IL-2 2.5 ng/mL) [9] = test: as above; conditions: 72 h
KAI3 (IL-2 2.5 ng/mL) [10] = test: as above; conditions: 72 h
SNK-6 (IL-2 2.5 ng/mL) [11] = test: as above; conditions: 72 h
[12] = tested on: normal primary NK cells, pool 2 (3 donors) (IL-2 2.5 ng/mL); test: as above; conditions: 72 h
DERL-7 (IL-2 2.5 ng/mL) [13] = test: as above; conditions: 72 h
[14] = tested on: normal NK cells expanded with K562-aAPC; test: as above; conditions: 72 h, IL-2 2.5 ng/mL
Experimental: (§1)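 Drug sensitivity and resistance testing on K562-aAPC-expanded normal NK cells: 5 concentrations (10-fold steps over a 10,000-fold range), 72 h at 37 °C, viability by CellTiter-Glo normalised to DMSO and benzethonium chloride controls; DSS from the fitted curve.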

[15] = tested on: normal NK cells expanded with K562-aAPC; test: drug sensitivity score (DSS) (DSS units); higher = more sensitive; extreme values may be limits of the assay; conditions: 72 h; IL-2 2.5 ng/mL
Experimental: as §1

YT (IL-2 2.5 ng/mL) [16] = test: as above; conditions: 72 h
NK-92 (IL-2 2.5 ng/mL) [17] = test: as above; conditions: 72 h
[18] = tested on: normal primary NK cells, pool 1 (3 donors), resting (IL-2 0 ng/mL); test: as above; conditions: 72 h
IMC-1 (IL-2 20 ng/mL) [19] = test: as above; conditions: 72 h
[20] = tested on: normal primary NK cells, pool 1 (3 donors) (IL-2 2.5 ng/mL); test: as above; conditions: 72 h
NK-YS (IL-2 2.5 ng/mL) [21] = test: as above; conditions: 72 h
NKL (IL-2 2.5 ng/mL) [22] = test: as above; conditions: 72 h
[23] = tested on: normal primary NK cells, pool 3 (3 donors) (IL-2 2.5 ng/mL); test: as above; conditions: 72 h
KHYG-1 (IL-2 2.5 ng/mL) [24] = test: as above; conditions: 72 h
KAI3 (IL-2 2.5 ng/mL) [25] = test: as above; conditions: 72 h
SNK-6 (IL-2 2.5 ng/mL) [26] = test: as above; conditions: 72 h
[27] = tested on: normal primary NK cells, pool 2 (3 donors) (IL-2 2.5 ng/mL); test: as above; conditions: 72 h
DERL-7 (IL-2 2.5 ng/mL) [28] = test: as above; conditions: 72 h

COc1ccc(CCc2nc3cc(-c4c(C)noc4C)ccc3n2C[C@H](C)N2CCOCC2)cc1Cl [SGC-CBP30] (max concentration tested 25000 nM)
percent inhibition of viability [%]
Conditions	2.5 nM	25 nM	250 nM	2500 nM	25000 nM
DERL-7 (IL-2 2.5 ng/mL) [13]	0.1	3.95	12.3	60.5	96.1
IMC-1 (IL-2 20 ng/mL) [4]	-7.53	-9.31	-8.36	-20.2	35.3
KAI3 (IL-2 2.5 ng/mL) [10]	1.53	-3.88	-18.5	-12.8	51.8
KHYG-1 (IL-2 2.5 ng/mL) [9]	-1.44	-8.58	-1.59	16.4	99.4
NK-92 (IL-2 2.5 ng/mL) [2]	-16.2	-20.5	-26.2	-17.7	64.4
NK-YS (IL-2 2.5 ng/mL) [6]	-1.97	-5.16	0.38	22.5	67.9
NKL (IL-2 2.5 ng/mL) [7]	0.5	1.11	1.38	53.1	72.8
SNK-6 (IL-2 2.5 ng/mL) [11]	-3.48	-9.35	6.99	15.5	20.9
YT (IL-2 2.5 ng/mL) [1]	-1.31	-7.71	-7.11	10.1	70
[3]	18.2	2.19	20.6	19.9	86
[5]	-4.81	2.68	13	33.8	96.6
[8]	-5.75	-3.57	2.2	8.83	68.9
[12]	-5.14	-1.93	8.85	24.7	90.1
[14]	-5.48	-4.45	-3.35	8.12	84.2

Conditions	drug sensitivity score
DERL-7 (IL-2 2.5 ng/mL) [28]	13.3
IMC-1 (IL-2 20 ng/mL) [19]	1.04
KAI3 (IL-2 2.5 ng/mL) [25]	2.09
KHYG-1 (IL-2 2.5 ng/mL) [24]	8.22
NK-92 (IL-2 2.5 ng/mL) [17]	2.67
NK-YS (IL-2 2.5 ng/mL) [21]	6.98
NKL (IL-2 2.5 ng/mL) [22]	10.4
SNK-6 (IL-2 2.5 ng/mL) [26]	2.41
YT (IL-2 2.5 ng/mL) [16]	5.56
[15]	5.98
[18]	7.45
[20]	9.22
[23]	5.27
[27]	8.45

O=P1(N(CCCl)CCCl)NCCCO1 (stereo not drawn) [Cyclophosphamide] (max concentration tested 40000 nM)
percent inhibition of viability [%]
Conditions	4 nM	40 nM	400 nM	4000 nM	40000 nM
DERL-7 (IL-2 2.5 ng/mL) [13]	-4.46	-3.5	-1.09	-0.28	5.07
IMC-1 (IL-2 20 ng/mL) [4]	-3.57	-3.7	-1.67	-7.03	-3.85
KAI3 (IL-2 2.5 ng/mL) [10]	-3.45	3.79	4.87	17.2	40.9
KHYG-1 (IL-2 2.5 ng/mL) [9]	-3.97	-6.87	-6.42	-6.18	-3.6
NK-92 (IL-2 2.5 ng/mL) [2]	-18.2	-9.83	-4.39	-1.7	10.6
NK-YS (IL-2 2.5 ng/mL) [6]	-5.26	-6.65	-2.31	-4.3	5.51
NKL (IL-2 2.5 ng/mL) [7]	-11.1	-8.19	-4.09	-3.02	8.99
SNK-6 (IL-2 2.5 ng/mL) [11]	7.84	-6.82	9.06	-4.15	10.8
YT (IL-2 2.5 ng/mL) [1]	-4.55	-6.6	-7.59	-8.95	-8.31
[3]	-3.08	-15.2	-6.52	18.4	64.8
[5]	-10.4	-10.4	-10.4	1.26	30.9
[8]	-7.23	-5.67	-9.18	0.96	16.7
[12]	-11	-0.5	-0.82	2.11	21.8
[14]	1.23	-1.48	-6.12	-0.37	32.1

Conditions	drug sensitivity score
DERL-7 (IL-2 2.5 ng/mL) [28]	0
IMC-1 (IL-2 20 ng/mL) [19]	0
KAI3 (IL-2 2.5 ng/mL) [25]	3.77
KHYG-1 (IL-2 2.5 ng/mL) [24]	0
NK-92 (IL-2 2.5 ng/mL) [17]	0
NK-YS (IL-2 2.5 ng/mL) [21]	0
NKL (IL-2 2.5 ng/mL) [22]	0
SNK-6 (IL-2 2.5 ng/mL) [26]	0
YT (IL-2 2.5 ng/mL) [16]	0
[15]	1.42
[18]	6.32
[20]	1.52
[23]	0.44
[27]	1.01
